Consider 32 compounds from patent US5214047A, “Tetracyclic quinazoline derivatives, effective as antiarrythmic agents” (priority 1987, dated 1993).

Each structure is given as a SMILES string. Counter-ions that a name gives are not always drawn. Like-named read-outs stand apart in the source and are kept apart here.

This test has as its system QT interval. The experiment in a line: QT interval prolongation (ECG, class III action) in anesthetized guinea pigs. In kind it is in vivo, Pirbright white guinea pigs. Conditions: for ED (20%): Cavia porcellus, read-out: Prolongation of the QT interval ED20%; for Potency relative to that of d-sotalol = 1.0: QT prolongation, ED20%. How it is done:
The action of the novel substances has been tested as follows:
The experimental animals used were male and female Pirbright white guinea pigs weighing 300-500 g. 1.5 g/kg urethane i.p. were used for anesthesia. The substances were administered intravenously. The extremity lead II was recorded to measure the ECG conduction times and the heart rate. The measured variables were the QT and PQ intervals and the heart rate. 4-6 animals were used for each dose. The criterion for a class III action was an increase in the QT interval compared with the values before administration of the substance. A PQ increase and a large decrease in the heart rate were used as exclusion criteria. The ED20% is calculated from the linear relation between log dose (mg/kg) of the substance and the relative prolongation of the QT interval (Δ%).

Where [1] appears, read: guinea pigs, urethane anesthesia, intravenous, dose for 20% QT prolongation calculated from log dose (mg/kg) vs relative QT prolongation.

Take `Cc1ccc(C23CCCN2c2ccccc2C2=NCCN23)cc1` (stereo not shown) [Example 1, 2,3,5,6,7,8-Hexahydro-5-(4-methylphenyl)imidazo[1,2-c]pyrrolo[1,2-a]quinazoline]: the ED (20%) under setting [1] was 1 mg/kg. In addition, for the setting “guinea pigs, intravenous”, the “Potency relative to that of d-sotalol = 1.0” value (shortened to “Potency relative to that”) came to 3.6.
For `Clc1ccc(C23CCCN2c2ccccc2C2=NCCN23)cc1` (stereo not shown) [Example 2], for the setting “iv”, the ED (20%) is 1.1 mg/kg. Further, the “Potency relative to that” value (guinea pigs, intravenous) was determined as 3.3.
For the compound `Fc1ccc(C23CCCN2c2ccccc2C2=NCCN23)cc1` (stereo not shown) [Example 4, 5-(4-Fluorophenyl)-2,3,5,6,7,8-hexahydroimidazo[1,2-c]pyrrolo[1,2-a]quinazoline], the ED (20%) under setting [1] is 0.21 mg/kg. Besides, the “Potency relative to that” value (guinea pigs, intravenous) stood at 17.
Take `COc1cc2c(cc1OC)N1CCCC1(c1ccccc1)N1CCN=C21` (stereo not shown) [Example 5, 2,3,5,6,7,8-Hexahydro-11,12-dimethoxy-5-phenylimidazo[1,2-c]pyrrolo[1,2-a]quinazoline]: under setting [1], the ED (20%) was 1 mg/kg. For the setting “guinea pigs, intravenous”, the “Potency relative to that” value came to 3.5.
The corresponding values for `COc1ccc(C23CCCN2c2ccccc2C2=NCCN23)cc1` (stereo not shown) [Example 8] are 0.61 mg/kg and 6.0.
The corresponding values for `Clc1ccc(C23CCCN2c2ccccc2C2=NCCN23)cc1Cl` (stereo not shown) [Example 9] are 1.5 mg/kg and 2.4.
The corresponding values for `Clc1ccc2c(c1)N1CCCC1(c1ccccc1)N1CCN=C21` (stereo not shown) [Example 11, 11-Chloro-2,3,5,6,7,8-hexahydro-5-phenylimidazo[1,2-c]pyrrolo[1,2-a]quinazoline] are 0.4 mg/kg and 9.0.
Consider `Clc1ccc(C23CCCN2c2ccccc2C2=NCCN23)c(Cl)c1` (stereo not shown) [Example 13, 5-(2,4-Dichlorophenyl)-2,3,5,6,7,8-hexahydroimidazo[1,2-c]pyrrolo[1,2-a]quinazoline hydrochloride], for which the ED (20%) under setting [1] is 0.99 mg/kg. Moreover, the “Potency relative to that” value (guinea pigs, intravenous) amounted to 3.7.
Regarding `Fc1ccc(C23CCCN2c2cc(Cl)ccc2C2=NCCN23)cc1` (stereo not shown) [Example 15, 11-Chloro-5-(4-fluorophenyl)-2,3,5,6,7,8-hexahydroimidazo[1,2-c]pyrrolo[1,2-a]quinazoline hydrochloride], the ED (20%) under setting [1] is 0.43 mg/kg. In addition, where the note is “guinea pigs, intravenous”, the “Potency relative to that” value was 8.5.
`Clc1ccc(C23CCCN2c2ccccc2C2=NCCN23)s1` (stereo not shown) [Example 19, 5-(2-(5-Chlorothienyl))-2,3,5,6,7,8-hexahydroimidazo[1,2-c]pyrrolo[1,2-a]quinazoline hydrochloride]: under setting [1], the ED (20%) is 1.4 mg/kg. Moreover, the “Potency relative to that” value (guinea pigs, intravenous) amounted to 2.6.
For `O=[N+]([O-])c1ccc(C23CCCN2c2ccccc2C2=NCCN23)cc1` (stereo not shown) [Example 21, 2,3,5,6,7,8-Hexahydro-5-(4-nitrophenyl)imidazo[1,2-c]pyrrolo[1,2-a]quinazoline hydrochloride], the ED (20%) under setting [1] is 0.46 mg/kg. Also, the “Potency relative to that” value (guinea pigs, intravenous) worked out at 8.0.
Take `c1ccc(C23CCCN2c2ccccc2C2=NC4CCCCC4N23)cc1` (stereo not shown) [Example 22, 2,3,5,6,7,8-Hexahydro-2,3-tetramethylene-5-phenylimidazo[1,2-c]pyrrolo[1,2-a]quinazoline]: the ED (20%) (iv) is 0.56 mg/kg. Further, the “Potency relative to that” value (guinea pigs, intravenous) is 6.5.
Consider `CC1CN=C2c3ccccc3N3CCCC3(c3ccccc3)N21` (stereo not shown) [Example 24, hydrochloride], for which the ED (20%) under setting [1] was 0.29 mg/kg. Besides, the “Potency relative to that” value (guinea pigs, intravenous) came to 12.
On to `c1csc(C23CCCN2c2ccccc2C2=NCCCN23)c1` (stereo not shown) [Example 25], for which the ED (20%) under setting [1] was 0.58 mg/kg. Further, the “Potency relative to that” value (guinea pigs, intravenous) is 6.2.
As to `Clc1ccc(C23CCCN2c2ccccc2C2=NCCCN23)cc1` (stereo not shown) [Example 26, 6-(4-Chlorophenyl)-2,3,6,7,8,9-hexahydro-2H-pyrimido[1,2-c]pyrrolo[1,2-a]quinazoline], the ED (20%) under setting [1] was 1.5 mg/kg. For the same compound, the “Potency relative to that” value (guinea pigs, intravenous) is reported as 2.4.
The corresponding values for `Fc1ccc(C23CCCN2c2ccccc2C2=NCCCN23)cc1` (stereo not shown) [Example 27, 6-(4-Fluorophenyl)-2,3,5,6,7,8-hexahydro-2H-pyrimido[1,2-c]pyrrolo[1,2-a]quinazoline] are 0.42 mg/kg and 8.7.
As for `Clc1ccc(C23CCCN2c2ccccc2C2=NCCCN23)cc1Cl` (stereo not shown) [Example 28, 6-(3,4-Dichlorophenyl)-2,3,5,6,7,8-hexahydro-2H-pyrimido[1,2-c]pyrrolo[1,2-a]quinazoline], under setting [1], the ED (20%) was 0.94 mg/kg. Also, under “guinea pigs, intravenous”, the “Potency relative to that” value came to 3.9.
For the compound `Clc1ccc2c(c1)C1=NCCCN1C1(c3ccccc3)CCCN21` (stereo not shown) [Example 29, 13-Chloro-2,3,5,6,7,8-hexahydro-6-phenyl-2H-pyrimido[1,2-c]pyrrolo[1,2-a]quinazoline hydrochloride], the ED (20%) under setting [1] was 0.55 mg/kg. The “Potency relative to that” value (guinea pigs, intravenous) worked out at 6.6.
The corresponding values for `Fc1ccc(C23CCCN2c2ccc(Cl)cc2C2=NCCCN23)cc1` (stereo not shown) [Example 30, 13-Chloro-6-(4-fluorophenyl)-2,3,5,6,7,8-hexahydro-2H-pyrimido[1,2-c]pyrrolo[1,2-a]quinazoline] are 1 mg/kg and 3.6.
As for `O=[N+]([O-])c1cccc(C23CCCN2c2ccccc2C2=NCCCN23)c1` (stereo not shown) [Example 31, 2,3,5,6,7,8-Hexahydro-6-(3-nitrophenyl)-2H-pyrimido[1,2-c]pyrrolo[1,2-a]quinazoline], the ED (20%) under setting [1] is 0.56 mg/kg. Moreover, the “Potency relative to that” value (guinea pigs, intravenous) came to 6.5.
The corresponding values for `Clc1ccc(C23CCCN2c2ccccc2C2=NCCCN23)s1` (stereo not shown) [Example 33, 6-(2-(5-Chlorothienyl))-2,3,5,6,7,8-hexahydro-2H-pyrimido[1,2-c]pyrrolo[1,2-a]quinazoline] are 1.5 mg/kg and 2.4.
The corresponding values for `O=[N+]([O-])c1ccc(C23CCCN2c2ccccc2C2=NCCCN23)cc1` (stereo not shown) [Example 34, 2,3,5,6,7,8-Hexahydro-6-(4-nitrophenyl)-2H-pyrimido[1,2-c]pyrrolo[1,2-a]quinazoline] are 0.61 mg/kg and 6.0.
Consider `COc1ccc(C23CCCN2c2ccccc2C2=NCCCN23)cc1` (stereo not shown) [Example 35, 2,3,5,6,7,8-Hexahydro-6-(4-methoxyphenyl)-2H-pyrimido[1,2-c]pyrrolo[1,2-a]quinazoline hydrochloride], for which the ED (20%) under setting [1] is 0.63 mg/kg. For the same compound, the “Potency relative to that” value (guinea pigs, intravenous) was found to be 5.7.
The corresponding values for `Clc1ccc2c(c1)N1CCCC1(c1ccccc1)N1CCCN=C21` (stereo not shown) [Example 37, 12-Chloro-2,3,5,6,7,8-hexahydro-6-phenyl-2H-pyrimido[1,2-c]pyrrolo[1,2-a]quinazoline hydrochloride] are 0.69 mg/kg and 5.3.
On to `Fc1ccc(C23CCCN2c2cc(Cl)ccc2C2=NCCCN23)cc1` (stereo not shown) [Example 38, 2-Chloro-6-(4-fluorophenyl)-2,3,5,6,7,8-hexahydro-2H-pyrimido[1,2-c]pyrrolo[1,2-a]quinazoline hydrochloride], for which the ED (20%) under setting [1] is 0.83 mg/kg. Moreover, the “Potency relative to that” value (guinea pigs, intravenous) turned out to be 4.4.
`CC1(C)CN=C2c3ccccc3N3CCCC3(c3ccccc3)N2C1` (stereo not shown) [Example 41, 2,3,5,6,7,8-Hexahydro-3,3-dimethyl-6-phenyl-2H-pyrimido[1,2-c]pyrrolo[1,2-a]quinazoline hydrochloride]: under setting [1], the ED (20%) is 0.46 mg/kg. For the same compound, the “Potency relative to that” value (guinea pigs, intravenous) is listed as 7.8.
Regarding `CC1(C)CN=C2c3ccccc3N3CCCC3(c3ccc([N+](=O)[O-])cc3)N2C1` (stereo not shown) [Example 42, 2,3,5,6,7,8-Hexahydro-3,3-dimethyl-6-(4-nitrophenyl)-2H-pyrimido[1,2-c]pyrrolo[1,2-a]quinazoline hydrochloride], the ED (20%) under setting [1] was 0.78 mg/kg. The “Potency relative to that” value (guinea pigs, intravenous) was determined as 4.7.
On to `CC1(C)CN=C2c3ccccc3N3CCCC3(c3ccccc3)N21` (stereo not shown) [Example 43, 2,3,5,6,7,8-Hexahydro-3,3-dimethyl-5-phenylimidazo[1,2-c]pyrrolo[1,2-a]quinazoline hydrochloride], for which, under setting [1], the ED (20%) is 0.6 mg/kg. Also, under “guinea pigs, intravenous”, the “Potency relative to that” value amounted to 6.1.
For the compound `CC1(C)CCN=C2c3ccccc3N3CCCC3(c3ccccc3)N21` (stereo not shown) [Example 44, 2,3,5,6,7,8-Hexahydro-4,4-dimethyl-6-phenyl-2H-pyrimido[1,2-c]pyrrolo[1,2-a]quinazoline hydrochloride], the ED (20%) under setting [1] is 0.49 mg/kg. The “Potency relative to that” value (guinea pigs, intravenous) is listed as 7.4.
As to `CC1(C)CN=C2c3ccccc3N3CCCC3(c3ccc(F)cc3)N21` (stereo not shown) [Example 45, hydrochloride], the ED (20%) under setting [1] was 0.59 mg/kg. Further, the “Potency relative to that” value (guinea pigs, intravenous) is 6.2.
In the case of `CC1(C)CN=C2c3ccccc3N3CCCC3(c3ccc([N+](=O)[O-])cc3)N21` (stereo not shown) [Example 46, 2,3,5,6,7,8-Hexahydro-3,3-dimethyl-5-(4-nitrophenyl)imidazo[1,2-c]pyrrolo[1,2-a]quinazoline hydrochloride], the ED (20%) under setting [1] is 0.55 mg/kg. For the same compound, the “Potency relative to that” value (guinea pigs, intravenous) is on record as 6.7.
The corresponding values for `CC1(C)CCN=C2c3ccccc3N3CCCC3(c3ccc([N+](=O)[O-])cc3)N21` (stereo not shown) [Example 47, 2,3,5,6,7,8-Hexahydro-4,4-dimethyl-6-(4-nitrophenyl)-2H-pyrimido[1,2-c]pyrrolo[1,2-a]quinazoline hydrochloride] are 0.52 mg/kg and 7.0.
